Experiments:
[1] = tested on: PP2A subunits; assay: Co-immunoprecipitation of PP2A subunits (holoenzyme assembly); set-up: species or system human; conditions: KOPT-K1 cells, 10 μM, 24 hours
Source text: (§1) The biochemical activity of iPAP1 was further characterized by addressing whether it acts exclusively on the three identified subunits to mediate the assembly of PP2A, or whether other proteins expressed by T-ALL cells are also required. Using baculovirus vectors, each subunit of PP2A was first expressed with a C-terminal tag in Hi5 insect cells, and then purified the subunit proteins using columns with antibodies against the tags bound to agarose beads (see, Example 5, FIG. 13-FIG. 14). […] PP2A is a unique enzyme consisting of three subunits and it needs to be properly assembled into a holoenzyme before it mediates phosphatase activity. […] The protein lysates were then immunoprecipitated with anti-PPP2CA antibody or normal IgG as a control, and the precipitates were immunoblotted with antibodies specifically detecting each of the PP2A subunits. […] Nuclear and cytoplasmic fractions were separated using NE-PER™ Nuclear and Cytoplasmic Extraction Kit (Thermo Fisher Scientific), and each of the subunits of PP2A was analyzed by western blot. Histone H3 and α tubulin expression levels were used as loading controls for nuclear and cytoplasmic fractions, respectively. […] Lysates were immunoprecipitated using an anti-PPP2CA antibody, and then blotted with antibodies specific for each PP2A subunit. […] The results of a co-immunoprecipitation assay using an anti-PPP2CA antibody for immunoprecipitation in KOPT-K1 cells treated with SMAP at 10 μM or control DMSO for 24 hours before they were lysed for protein extraction are illustrated in FIG. 9B. Lysates were immunoprecipitated using an anti-PPP2CA antibody, and then blotted with antibodies specific for each PP2A subunit.

[2] = in vivo; conditions: female, mouse, po
Method: PPZ and iPAP1 were each given per orally to eight-week-old female C57BL/6 mice every 24 hours (n=3 for each cohort). The mice were monitored for four recognized types of dopamine receptor D2 mediated toxicity, namely: i) general activity; ii) reactivity to touch; iii) fear/startle to sound; and iv) tone of abdominal muscle. Behavioral monitoring was done at 15 minutes, 1 hour, 4 hours and 24 hours after each treatment. PPZ and iPAP1 were each administered at 0, 2.5, 5, 10, 20 and 40 mg/kg body weight/dose, and iPAP1 was also administered at 80 mg/kg body weight/dose.

[3] = tested on: p-ERK and p-AKT in KOPT-K1 cells; assay: Western blot of p-ERK and p-AKT; type: cell-based, human; conditions: three hours
Source text: Levels of the PP2A endogenous substrates p-ERK and p-AKT in KOPT-K1 cells were examined because of the importance of the MAPK/ERK and PI3K/AKT/mTOR pathways in cancer cells.

[4] = Peripheral blood platelet counts; type: in vivo, C57BL/6J mice; conditions: 80 mg/kg/day intraperitoneally, seven consecutive days
Method: The peripheral blood platelet counts in C57BL/6J mice treated with either by DMSO or iPAP1 at 80 mg/kg/day intraperitoneally for seven consecutive days, were measured. […] Other blood cell counts were unchanged in treated compared to control mice. iPAP1 treatment of mice increased the platelet count, due to effects of the compound on endoreduplication of megakaryocytes.

[5] = tested on: PLK1, PLK4, AURKA, KIF11, SASS6, RCC1, HAUS8, TPX2, PCNT, CENPJ and TUBG1 in KOPT-K1 cells; assay: Relative mRNA expression of spindle monopolarity genes; type: cell-based, human; conditions: 1 μM, 6 hours
Method: The relative mRNA expression of genes whose inducible CRISPR-cas9 knockout causes cell cycle arrest in prometaphase yielding spindle monopolarity (PLK1, PLK4, AURKA, KIF11, SASS6, RCC1, HAUS8, TPX2, PCNT, CENPJ and TUBG1) (McKinley et al., Dev. Cell 40:405-420 (2017)) was evaluated in […] cell lines. […] The results are illustrated in FIG. 33.

[6] = tested on: 274 cancer cell lines from 39 distinct types of human cancers; assay: PRISM analysis of cell viability; type: cell-based; conditions: 5 μM, 5 days
Method: Many other human cell lines from hematologic malignancies and solid tumors were as sensitive as the most sensitive T-ALL cell lines to treatment with iPAP1. Cell lines with a relative viability below the dashed line at 0.5 have an IC50 value for iPAP1 below 5 μM.

[7] = molecular target: T1, PP2A subunits (Homo sapiens, UniProt P30153+P67775+Q16537); assay: Co-immunoprecipitation of PP2A subunits (holoenzyme assembly); conditions: purified subunits from insect cells
T1 construct: are endogenously expressed by KOPTK1 cells; endogenous in cells; host or cells: KOPT-K1 T-ALL cells / lysates
Source text: as §1

[8] = tested on: KOPT-K1, SUPT-13 and RPMI-8402 cells; assay: Dose-response viability in three T-ALL cell lines, 72 hours; type: cell-based, human
Method: Viable cells are shown on the Y axis as a percent of the DMSO control cells. Data are presented as means±s.d. (n=3). Data are presented as means±s.d. […] The IC50 for iPAP1 is 200 to 400 nM for these cell lines.
(Perrotti and Neviani, Cancer Metastasis Rev. 27(2):159-68 (2008); Sangodkar et al., J. Clin. Invest. 127(6):2081-2090 ([…])). […] Data are presented as means±s.d.

T1 sequence (P30153 2-589): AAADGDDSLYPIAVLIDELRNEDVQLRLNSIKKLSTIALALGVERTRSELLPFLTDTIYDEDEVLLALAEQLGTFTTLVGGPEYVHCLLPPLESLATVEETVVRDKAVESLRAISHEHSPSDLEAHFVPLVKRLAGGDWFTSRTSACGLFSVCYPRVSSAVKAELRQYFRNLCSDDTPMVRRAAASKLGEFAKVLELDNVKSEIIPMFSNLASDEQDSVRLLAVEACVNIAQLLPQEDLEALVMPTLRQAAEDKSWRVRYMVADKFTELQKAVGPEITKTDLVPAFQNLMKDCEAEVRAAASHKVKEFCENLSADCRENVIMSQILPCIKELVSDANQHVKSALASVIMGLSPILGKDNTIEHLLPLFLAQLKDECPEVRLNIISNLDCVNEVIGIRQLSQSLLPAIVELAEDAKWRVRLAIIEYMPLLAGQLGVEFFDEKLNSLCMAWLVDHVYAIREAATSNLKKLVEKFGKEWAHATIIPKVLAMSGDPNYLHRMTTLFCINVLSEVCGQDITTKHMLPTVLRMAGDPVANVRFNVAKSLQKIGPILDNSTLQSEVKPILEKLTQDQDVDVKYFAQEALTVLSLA
T1 sequence (P67775 whole entry): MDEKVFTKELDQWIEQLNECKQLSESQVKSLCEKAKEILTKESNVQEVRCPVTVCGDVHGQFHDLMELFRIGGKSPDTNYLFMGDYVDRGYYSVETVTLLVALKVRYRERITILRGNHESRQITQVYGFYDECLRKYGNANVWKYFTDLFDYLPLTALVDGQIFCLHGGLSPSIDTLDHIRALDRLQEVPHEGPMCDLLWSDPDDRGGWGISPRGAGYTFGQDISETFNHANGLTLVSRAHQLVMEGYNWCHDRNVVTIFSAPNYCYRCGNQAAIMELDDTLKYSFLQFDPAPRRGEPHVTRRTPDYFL
T1 sequence (Q16537 2-467): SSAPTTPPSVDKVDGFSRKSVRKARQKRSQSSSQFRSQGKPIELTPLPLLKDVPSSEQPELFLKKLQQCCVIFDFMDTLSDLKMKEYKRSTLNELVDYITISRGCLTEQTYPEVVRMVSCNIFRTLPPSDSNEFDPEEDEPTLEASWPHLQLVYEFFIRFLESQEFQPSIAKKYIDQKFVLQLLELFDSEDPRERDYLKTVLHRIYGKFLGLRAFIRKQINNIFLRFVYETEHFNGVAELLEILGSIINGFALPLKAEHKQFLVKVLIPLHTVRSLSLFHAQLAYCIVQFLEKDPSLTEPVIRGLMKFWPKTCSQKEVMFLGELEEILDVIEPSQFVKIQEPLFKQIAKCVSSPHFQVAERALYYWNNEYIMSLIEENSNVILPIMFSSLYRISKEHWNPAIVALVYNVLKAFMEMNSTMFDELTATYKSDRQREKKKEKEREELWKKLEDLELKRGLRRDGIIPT

| SMILES | PP2A subunits co-immunoprecipitated with anti-PPP2CA antibody [1] | MTD at 1 week [2] [mg/kg] | phosphorylation of ERK and AKT [3] | other blood cell counts [4] | peripheral blood platelet counts [4] | relative mRNA expression [5] | cell killing compared with PPZ in every cell line [6] | assembly of purified PPP2R1A, PPP2CA and PPP2R5E [7] | IC50 ([8]; Homo sapiens, KOPT-K1, SUPT-13 and RPMI-8402, 72 hours) [nM] | more active than SMAP against T-ALL cells based on the IC50 ([8]; SUPT-13, KOPT-K1 and RPMI-8402) [fold] |
| --- | --- | --- | --- | --- | --- | --- | --- | --- | --- | --- |
| OCCN1CCN(CCCN2c3ccccc3Sc3ccc(Cl)cc32)CC1 [PPZ, perphenazine, reference compound] | PPP2CA uniquely binds to PPP2R1A and PPP2R5E | 2.5 | significantly reduced | – | – | – | – | – | – | – |
| COc1ccc(C(=O)N2c3ccccc3Sc3ccc(Cl)cc32)cc1 [iPAP1] | – | – | – | unchanged | significantly increased the platelet counts | significantly down-regulated the expression levels of most of these genes | more active in cell killing than was PPZ | assembled into an active enzyme complex | 200 to 400 | ~5 |
